# Measurements taken from patent US20250147006A1, “MULTI-DEPTH SPIRAL MILLI FLUIDIC DEVICE FOR WHOLE MOUNT ZEBRAFISH ANTIBODY STAINING” (THE REGENTS OF THE UNIVERSITY OF CALIFORNIA, priority 2023, published 2025).
# Like-named read-outs stand apart in the source and are kept apart here.
# What was measured:
# zebrafish embryos [1] = conditions: 24-well plate
# zebrafish embryos [2] = assay: animal or person; conditions: Danio rerio, 2 h, read-out: absolute EC50 (50% effective concentration), tail curvature
# zebrafish embryos [3] = conditions: for EC50: Danio rerio, 2 h
smiles,measurement,setting,value
Cn1c(=O)c2c(ncn2C)n(C)c1=O [caffeine],frequency of tail curvature (scoliosis),zebrafish embryos [1]; after 2-hour caffeine treatment,concentration dependent
same,recovery of embryos with tail curvature,zebrafish embryos [1]; after 24 hours culturing in E3 buffer,recovered to normal
same,zebrafish embryo survival rate at the end of the experiment,"zebrafish embryos [1]; all caffeine concentrations 0.0325-2 mg/mL, 2-hour treatment and 24-hour recovery",over 90%
same,EC50,zebrafish embryos [2],690 µg/mL
same,zebrafish embryo survival rate,"zebrafish embryos [3]; CGG, 2-hour treatment and 24-hour recovery, compared with well plate",close to the zebrafish embryo tested in the well plate
same,"hillslope of dose-response curves, tail curvature","zebrafish embryos [3]; CGG, 3 gradients, 2-hour treatment, compared with well plate",greater than the hillslope of well plate-based dose-response curves
same,overall frequency of edema occurrences,"zebrafish embryos [3]; CGG, after 24-hour recovery at 2 ml/min, compared with well plate",significantly higher in the CGG than in the well plate
same,EC50,"zebrafish embryos [3]; read-out: absolute EC50, tail curvature, CGG, measured concentrations (trypan blue intensity), highest inner wall inlet flowrate (150 μl/min), outer wall 300 μl/min, 2-hour treatment",987 µg/mL
same,EC50,"zebrafish embryos [3]; read-out: absolute EC50, tail curvature, CGG, measured concentrations (trypan blue intensity), lowest inner wall inlet flowrate (75 μl/min), outer wall 300 μl/min, 2-hour treatment",993 µg/mL
same,EC50,"zebrafish embryos [3]; read-out: absolute EC50, tail curvature, CGG, measured concentrations (trypan blue intensity), middle inner wall inlet flowrate (100 μl/min), outer wall 300 μl/min, 2-hour treatment",1080 µg/mL
same,EC50,"zebrafish embryos [3]; read-out: absolute EC50, tail curvature, CGG, simulated concentrations, highest inner wall inlet flowrate (150 μl/min), outer wall 300 μl/min, 2-hour treatment",1210 µg/mL
same,EC50,"zebrafish embryos [3]; read-out: absolute EC50, tail curvature, CGG, simulated concentrations, lowest inner wall inlet flowrate (75 μl/min), outer wall 300 μl/min, 2-hour treatment",1180 µg/mL
same,EC50,"zebrafish embryos [3]; read-out: absolute EC50, tail curvature, CGG, simulated concentrations, middle inner wall inlet flowrate (100 μl/min), outer wall 300 μl/min, 2-hour treatment",1220 µg/mL
